Data taken from patent US20260027068A1, “METHODS OF ADM[…]-KETAMINE” (Perception Neuroscience, Inc., priority 2022, published 2026).

How the values were obtained:
[1] = test system: subjects with TRD; conditions: single IV infusion 0.5 mg/kg; 7 subjects with TRD; cited from earlier work
[2] = test system: CYP1A2; test: In vitro CYP induction
[3] = Oxygen saturation (pulse oximetry, SpO2)
Description: The Investigational Medicinal Product (IMP) R(−)-ketamine hydrochloride in sterile water for intravenous injection was investigated as an […] treatment of TRD. The International Union of Pure and Applied Chemistry (IUPAC) name is of the IMP is (2R)-2-(2-chlorophenyl)-2-(methylamino)cyclohexan-1-one. Subjects received the solution at either 30 mg or 60 mg dose, or a placebo. The IMP or placebo was administered on Day 1 as a single IV infusion via an electronic infusion pump over 40 minutes. The duration of study participation for each subject was up to 29 days including a screening period, a 3-day in-clinic visit, and 2 follow-up visits. 101 subjects were enrolled in approximately 20 study centers in the EU and the US.
Tympanic or temporal temperature, heart rate, blood pressure (SBP/DBP), respiratory rate, and SpO2 were assessed. Blood pressure and pulse measurements will be assessed with a completely automated device while the subject is supine or semi-supine. Manual techniques will be used only if an automated device is not available. Blood pressure and pulse measurements should be preceded by at least 5 minutes of rest for the subject in a quiet setting without distractions (e.g., television, cell phones). An abnormal blood pressure value at screening may be repeated once after 5 minutes of relaxation to determine the subject's eligibility. Blood pressure was recorded using the same arm and position (supine or semi-supine) throughout the study, where possible. Vital signs (to be taken before blood collection for laboratory tests) consisted of 1 pulse and 3 blood pressure measurements (3 consecutive blood pressure readings will be recorded at intervals of at least 1 minute). The average of the 3 blood pressure readings was recorded in the CRF. A pulse oximeter was used to measure peripheral capillary oxygen saturation (SpO2) continuously from pre-dose until 4-hours post-dose. A pulse oximeter was clipped onto the finger or foot of the subject, and light will be sent through the finger or foot and measured on the other side.
In these tables, baseline value is defined as the last non-missing value prior to study drug administration.

## CN[C@@]1(c2ccccc2Cl)CCCCC1=O.Cl [R(−)-ketamine, (2R)-2-(2-chlorophenyl)-2-(methylamino)cyclohexan-1-one]
[1]
  Antidepressant effects and safety profile: fast-onset and sustained antidepressant effects with a favorable safety profile
[2]
  CYP1A2 induction: inducer
[3]; 30 mg, Day 1, 15 minutes
  Oxygen Saturation, Max: 100%
  Oxygen Saturation, Mean: 98.3%
  Oxygen Saturation, Median: 98.0%
  Oxygen Saturation, Min: 96%
[3]; 30 mg, Day 1, 40 minutes
  Oxygen Saturation, Max: 99%
  Oxygen Saturation, Mean: 98.3%
  Oxygen Saturation, Median: 98.0%
  Oxygen Saturation, Min: 96%
[3]; 30 mg, Day 1, 60 minutes
  Oxygen Saturation, Max: 100%
  Oxygen Saturation, Mean: 98.2%
  Oxygen Saturation, Median: 98.0%
  Oxygen Saturation, Min: 96%
[3]; 30 mg, Day 1, 2 hours
  Oxygen Saturation, Max: 100%
  Oxygen Saturation, Mean: 98.4%
  Oxygen Saturation, Median: 99.0%
  Oxygen Saturation, Min: 97%
[3]; 30 mg, Day 1, 4 hours
  Oxygen Saturation, Max: 100%
  Oxygen Saturation, Mean: 98.3%
  Oxygen Saturation, Median: 98.0%
  Oxygen Saturation, Min: 96%
[3]; 30 mg, to Day 1, 15 minutes
  Oxygen Saturation, Change from Baseline, Max: 2%
  Oxygen Saturation, Change from Baseline, Mean: −0.3%
  Oxygen Saturation, Change from Baseline, Median: 0.0%
  Oxygen Saturation, Change from Baseline, Min: −3%
[3]; 30 mg, to Day 1, 40 minutes
  Oxygen Saturation, Change from Baseline, Max: 2%
  Oxygen Saturation, Change from Baseline, Mean: −0.4%
  Oxygen Saturation, Change from Baseline, Median: 0.0%
  Oxygen Saturation, Change from Baseline, Min: −2%
[3]; 30 mg, to Day 1, 60 minutes
  Oxygen Saturation, Change from Baseline, Max: 1%
  Oxygen Saturation, Change from Baseline, Mean: −0.5%
  Oxygen Saturation, Change from Baseline, Median: 0.0%
  Oxygen Saturation, Change from Baseline, Min: −3%
[3]; 30 mg, to Day 1, 2 hours
  Oxygen Saturation, Change from Baseline, Max: 3%
  Oxygen Saturation, Change from Baseline, Mean: −0.2%
  Oxygen Saturation, Change from Baseline, Median: 0.0%
  Oxygen Saturation, Change from Baseline, Min: −2%
[3]; 30 mg, to Day 1, 4 hours
  Oxygen Saturation, Change from Baseline, Max: 3%
  Oxygen Saturation, Change from Baseline, Mean: −0.4%
  Oxygen Saturation, Change from Baseline, Median: 0.0%
  Oxygen Saturation, Change from Baseline, Min: −3%
[3]; 60 mg, Day 1, 15 minutes
  Oxygen Saturation, Max: 100%
  Oxygen Saturation, Mean: 98.2%
  Oxygen Saturation, Median: 98.0%
  Oxygen Saturation, Min: 96%
[3]; 60 mg, Day 1, 40 minutes
  Oxygen Saturation, Max: 100%
  Oxygen Saturation, Mean: 98.1%
  Oxygen Saturation, Median: 98.0%
  Oxygen Saturation, Min: 95%
[3]; 60 mg, Day 1, 60 minutes
  Oxygen Saturation, Max: 100%
  Oxygen Saturation, Mean: 98.1%
  Oxygen Saturation, Median: 98.0%
  Oxygen Saturation, Min: 95%
[3]; 60 mg, Day 1, 2 hours
  Oxygen Saturation, Max: 100%
  Oxygen Saturation, Mean: 98.2%
  Oxygen Saturation, Median: 98.0%
  Oxygen Saturation, Min: 97%
[3]; 60 mg, Day 1, 4 hours
  Oxygen Saturation, Max: 100%
  Oxygen Saturation, Mean: 98.3%
  Oxygen Saturation, Median: 99.0%
  Oxygen Saturation, Min: 96%
[3]; 60 mg, to Day 1, 15 minutes
  Oxygen Saturation, Change from Baseline, Max: 4%
  Oxygen Saturation, Change from Baseline, Mean: 0.0%
  Oxygen Saturation, Change from Baseline, Median: 0.0%
  Oxygen Saturation, Change from Baseline, Min: −2%
[3]; 60 mg, to Day 1, 40 minutes
  Oxygen Saturation, Change from Baseline, Max: 2%
  Oxygen Saturation, Change from Baseline, Mean: −0.1%
  Oxygen Saturation, Change from Baseline, Median: 0.0%
  Oxygen Saturation, Change from Baseline, Min: −2%
[3]; 60 mg, to Day 1, 60 minutes
  Oxygen Saturation, Change from Baseline, Max: 3%
  Oxygen Saturation, Change from Baseline, Mean: −0.1%
  Oxygen Saturation, Change from Baseline, Median: 0.0%
  Oxygen Saturation, Change from Baseline, Min: −4%
[3]; 60 mg, to Day 1, 2 hours
  Oxygen Saturation, Change from Baseline, Max: 3%
  Oxygen Saturation, Change from Baseline, Mean: 0.0%
  Oxygen Saturation, Change from Baseline, Median: 0.0%
  Oxygen Saturation, Change from Baseline, Min: −2%
[3]; 60 mg, to Day 1, 4 hours
  Oxygen Saturation, Change from Baseline, Max: 1%
  Oxygen Saturation, Change from Baseline, Mean: 0.2%
  Oxygen Saturation, Change from Baseline, Median: 0.0%
  Oxygen Saturation, Change from Baseline, Min: −2%
